Data reported in patent US4524059A, “Fatty acid analogs” (The General Hospital Corporation, priority 1983, dated 1985).
Like-named read-outs stand apart in the source and are kept apart here. Blank lines part the entries; values can stand above or below the molecule they belong to.

Experiments:
[1] = dog, in vivo
[2] = Imaging study of a canine heart one hour post-LAD ligation; type: in vivo; details: dog
From the text: In addition to its long retention time, [^11 C] […] An imaging study of a canine heart following [^11 C]

[3] = Myocardial kinetics by positron tomography in adult, fasted, human volunteers; type: in vivo; details: 1-5 mCi intravenously
Description: (§1) The myocardial kinetics of BMHDA are evaluated in adult, fasted, human volunteers by positron tomography. Following attenuation measurements, volunteers receive between 1-5 mCi [^11 C] BMHDA intravenously and serial images are recorded for 30 min. No changes in heart rate, blood pressure, ECG, or respiratory rate are observed.

[4] = Tissue distribution study in CD Fischer rats (organ radioactivity, NaI well scintillation counter); type: in vivo; details: rat
Description: CD Fischer rats (175-225 g) are anesthetized with ether and 0.2 ml ([…]) of [^11 C] BMHDA is injected through the femoral vein. The rats are sacrificed by ether asphyxiation at 5, 15, 30, and 60 minutes after dosing. The appropriate organs are excised and radioactivity measured in a NaI (T1) well scintillation counter.

[5] = Heart rate, blood pressure, ECG and respiratory rate in human volunteers receiving the tracer; type: in vivo; details: 1-5 mCi intravenously
Description: as §1

Biodistribution in mice = type: in vivo
[6] = Sequential positron tomography imaging of the heart in a mongrel dog, 201Tl as control; type: in vivo
Description: Solutions of [^131 I]-BMPTA and, as a control, ^201 T1, are injected sequentially in a mongrel dog. After each injection, sequential images of the dog's heart are obtained using positron tomography.

[7] = Biodistribution and positron tomography imaging of the heart and liver in mongrel dogs; details: dog, images 3, 13 and 48 minutes after injection, [^11 C] BMHDA versus [^11 C] HDA
[8] = throughout the monitoring period

region of highest regional uptake in the myocardium [1]: left ventricle
wash-out from / retention in the myocardium [1]: much higher retention in the myocardium
uptake in normal areas of the heart [2]: very high uptake
uptake in the apex, the region in which the infarct is located [2]: much lower uptake
uptake pattern [2]: desirably selective uptake pattern
time in which myocardial activity approaches a constant level [3]: ≤ 3 min
retention of radioactivity in the heart ([4]; i.v. (femoral vein), 5-60 min): retained in the heart for up to one hour
liver activity ([4]; i.v., 5-60 min): increases during the course of the study
lung activity ([4]; i.v., compared with heart activity): at all times lower than heart activity
SMILES: CCCCCCCCCCCCCCC(C)C[11C](=O)O (stereo not drawn) [[^11 C] BMHDA, [1-^11 C] beta-methylheptadecanoic acid]
radioactivity in the myocardium over time [1]: remains constant throughout the experiment (60 minutes)
myocardial activity for the remainder of the observation ([3]; serial images for 30 min): constant for the remainder of the observation
extraction by the heart muscle ([4]; i.v. (femoral vein), 5-60 min): selectively extracted by the heart muscle
ECG [5]: No changes
blood pressure [5]: No changes
heart rate [5]: No changes
respiratory rate [5]: No changes

SMILES: CC(CCCCCCCCCCCc1ccc([131I])cc1)CC(=O)O (stereo not drawn) [[^131 I]-BMPTA, Beta-methyl-omega-(p-[^131 I]iodophenyl) tetradecanoic acid]
time of peak uptake by the kidney (Biodistribution in mice): 15 min
uptake in the heart (Biodistribution in mice; 5 minutes after injection): high levels of uptake
uptake in the liver (Biodistribution in mice; 5 minutes after injection): high levels of uptake
uptake by the kidney after the peak (Biodistribution in mice; 30 minutes after injection): declining slightly
maintenance of radioactivity in heart and liver (Biodistribution in mice; over the 30 minutes of the experiment): high levels of radioactivity generally being maintained
radioactivity in blood (Biodistribution in mice; [8]): lower throughout the monitoring period
radioactivity in skeletal muscle (Biodistribution in mice; [8]): lower throughout the monitoring period
radioactivity in the lungs (Biodistribution in mice; [8]): lower throughout the monitoring period
retention by the heart muscle compared to ^201 T1 [6]: longer retention
time after injection over which clear images of the heart are obtained [6]: as long as two hours after the injection
activity in the heart over the initial 60 minute period ([6]; 60 minutes): remains essentially the same

SMILES: CCCCCCCCCCCCCCCCC(=O)O [[^11 C] HDA, [^11 C] heptadecanoic acid]
wash-out from / retention in the myocardium [7]: rapidly washes out of the tissue
